Reference: patent US11401254B2, “Substituted thiophenecarboxamides and analogues as antibacterials agents” (Bayer Aktiengesellschaft, priority 2018, dated 2022)

System: not listed separately
Assay: Log P by HPLC on reversed phase columns (EEC directive 79/831 Annex V.A8)
Type: physicochemical
Conditions: method [a]: LC-UV, acidic range, 0.1% formic acid in water and acetonitrile as eluent
Procedure: In the above tables, measurement of Log P values was performed according to EEC directive 79/831 Annex V.A8 by HPLC (High Performance Liquid Chromatography) on reversed phase columns with the following methods: • ^[a]
If more than one Log P value is available within the same method, all the values are given and separated by “+”.
Calibration was done with straight-chain alkan2-ones (with 3 to 16 carbon atoms) with known Log P values (measurement of Log P values using retention times with linear interpolation between successive alkanones). Lambda-max-values were determined using UV-spectra from 200 nm to 400 nm and the peak values of the chromatographic signals.

Row | LogP | SMILES
1 | 3.58^[a] | Cc1c(C(=O)NC(C(=O)OC2COC2)C(C)C)sc(Br)c1Br (stereo not drawn) [I.16]
2 | 4.37^[a] | CCOC(=O)C(NC(=O)c1sc(Br)c(Br)c1C)C(C)C (stereo not drawn) [I.62]
3 | 3.91^[a] | COC(=O)C(NC(=O)c1sc(Br)c(Br)c1C)C(C)C (stereo not drawn) [I.63]
4 | 4.59^[a] | CCOC(=O)C(Cc1ccccc1)NC(=O)c1sc(Br)c(Br)c1C (stereo not drawn) [I.65]
5 | 4.66^[a] | CCOC(=O)C(CC(C)C)NC(=O)c1sc(Br)c(Br)c1C (stereo not drawn) [I.68]
6 | 4.66^[a] | CCOC(=O)C(CC(C)C)NC(=O)c1sc(Br)c(Br)c1C (stereo not drawn) [I.69]
7 | 3.69^[a] | COC(=O)C(CCSC)NC(=O)c1sc(Br)c(Br)c1C (stereo not drawn) [I.70]
8 | 4.37^[a] | CCOC(=O)C(NC(=O)c1sc(Cl)c(Cl)c1C)c1ccccc1 (stereo not drawn) [I.75]
9 | 4.44^[a] | CCOC(=O)C(NC(=O)c1sc(Br)c(Br)c1C)c1ccccc1 (stereo not drawn) [I.76]
10 | 3.40^[a] | Cc1c(C(=O)NCC(=O)OC(C)C)sc(Br)c1Br [I.78]
11 | 2.05^[a] | Cc1c(C(=O)NCC(=O)O)sc(Cl)c1Cl [I.80]
12 | 2.28^[a] | Cc1c(C(=O)NC(C)C(=O)O)sc(Cl)c1Cl (stereo not drawn) [I.81]
13 | 2.96^[a] | Cc1c(C(=O)NC(C(=O)O)C(C)C)sc(Cl)c1Cl (stereo not drawn) [I.82]
14 | 3.31^[a] | CC[C@H](C)[C@H](NC(=O)c1sc(Cl)c(Cl)c1C)C(=O)O [I.83]
15 | 3.31^[a] | Cc1c(C(=O)NC(CC(C)C)C(=O)O)sc(Cl)c1Cl (stereo not drawn) [I.84]
16 | 2.80^[a] | CSCCC(NC(=O)c1sc(Cl)c(Cl)c1C)C(=O)O (stereo not drawn) [I.85]
17 | 3.31^[a] | Cc1c(C(=O)NC(Cc2ccccc2)C(=O)O)sc(Cl)c1Cl (stereo not drawn) [I.86]
18 | 2.89^[a] | CSCCC(NC(=O)c1sc(Br)c(Br)c1C)C(=O)O (stereo not drawn) [I.87]
19 | 3.30^[a] | Cc1c(C(=O)NC(Cc2ccccc2)C(=O)O)sc(Br)c1Br (stereo not drawn) [I.88]
20 | 3.37^[a] | CC[C@H](C)[C@H](NC(=O)c1sc(Br)c(Br)c1C)C(=O)O [I.89]
21 | 4.34^[a] | COC(=O)C(NC(=O)c1sc(Cl)c(Cl)c1C)C(C)C (stereo not drawn) [I.91]

Row | LogP | SMILES
22 | 2.39^[a] | CCOC(=O)CNC(=O)c1sc(Br)cc1C [IXa.02]
23 | 3.65^[a] | CCOC(=O)C(NC(=O)c1sc(Br)cc1C)C(C)C (stereo not drawn) [IXa.03]
24 | 3.90^[a] | CCOC(=O)C(Cc1ccccc1)NC(=O)c1sc(Br)cc1C (stereo not drawn) [IXa.04]
25 | 2.49^[a] | CCOC(=O)C1(NC(=O)c2scc(Br)c2C)CC1 [IXb.01]
26 | 2.90^[a] | COC(=O)CNC(=O)c1sc(Cl)c(Cl)c1I [VIa.02]
27 | 2.96^[a] | COC(=O)CNC(=O)c1sc(Br)c(Br)c1I [VIa.03]
28 | 3.39^[a] | CCOC(=O)C1(NC(=O)c2sc(Cl)c(Cl)c2I)CC1 [VIa.05]
29 | 3.35^[a] | CCOC(=O)CNC(=O)c1sc(Br)c(Br)c1I [VIa.10]
30 | 3.31^[a] | CCOC(=O)CNC(=O)c1sc(Cl)c(Cl)c1I [VIa.12]
31 | 2.21^[a] | O=C(O)CNC(=O)c1sc(Cl)c(Cl)c1I [VIa.13]
32 | 4.93^[a] | CCOC(=O)C(Cc1ccccc1)NC(=O)c1sc(Br)c(Br)c1I (stereo not drawn) [VIa.14]
33 | 5.01^[a] | CCOC(=O)C(CC(C)C)NC(=O)c1sc(Br)c(Br)c1I (stereo not drawn) [VIa.15]
34 | 4.37^[a] | CCOC(=O)C(CCSC)NC(=O)c1sc(Br)c(Br)c1I (stereo not drawn) [VIa.16]
35 | 4.88^[a] | CCOC(=O)C(NC(=O)c1sc(Cl)c(Cl)c1Br)C(C)C (stereo not drawn) [VIa.17]
36 | 5.17^[a] | CCOC(=O)C(CC(C)C)NC(=O)c1sc(Cl)c(Cl)c1Br (stereo not drawn) [VIa.18]
37 | 4.46^[a] | CCOC(=O)C(CCSC)NC(=O)c1sc(Cl)c(Cl)c1Br (stereo not drawn) [VIa.19]
38 | 5.01^[a] | CCOC(=O)C(Cc1ccccc1)NC(=O)c1sc(Cl)c(Cl)c1Br (stereo not drawn) [VIa.20]
39 | 4.85^[a] | CCOC(=O)C(NC(=O)c1sc(Cl)c(Cl)c1I)C(C)C (stereo not drawn) [VIa.21]
40 | 5.08^[a] | CCOC(=O)C(CC(C)C)NC(=O)c1sc(Cl)c(Cl)c1I (stereo not drawn) [VIa.22]
41 | 4.40^[a] | CCOC(=O)C(CCSC)NC(=O)c1sc(Cl)c(Cl)c1I (stereo not drawn) [VIa.23]
42 | 5.00^[a] | CCOC(=O)C(Cc1ccccc1)NC(=O)c1sc(Cl)c(Cl)c1I (stereo not drawn) [VIa.24]

Row | SMILES | LogP
43 | CCOC(=O)c1sc(NC(=O)OC(C)(C)C)c(Br)c1C [XIIIa.01] | 4.62^[a]

Same assay, conditions: reversed phase HPLC columns, method [a]: LC-UV, acidic range, 0.1% formic acid in water and acetonitrile as eluent

Row | chromatographic logP | SMILES
44 | 2.57 | CCOC(=O)C1(NC(=O)c2scc(Br)c2C)CC1 [IXa.01, ethyl 1-{[(4-bromo-3-methyl-2-thienyl)carbonyl]amino}cyclopropanecarboxylate]
45 | 4.11 | COC(=O)c1sc(Cl)c(Cl)c1Br [VIIIa.02, methyl 3-bromo-4,5-dichlorothiophene-2-carboxylate]
46 | 2.52 | O=C(O)c1sc(Cl)c(Cl)c1Br [VIIIa.03, 3-bromo-4,5-dichlorothiophene-2-carboxylic acid]
47 | 3.33 | CCOC(=O)CNC(=O)c1sc(Cl)c(Cl)c1Br [VIa.01, ethyl N-[(3-bromo-4,5-dichloro-2-thienyl)carbonyl]glycinate]
48 | 1.97 | CCOC(=O)C1(NC(=O)c2sc(N)c(Br)c2C)CC1 [Xa.01, ethyl 1-{[(5-amino-4-bromo-3-methyl-2-thienyl)carbonyl]amino}cyclopropanecarboxylate]

Row | SMILES | chromatographic logP
49 | Cc1c(C(=O)O)sc(NC(=O)OC(C)(C)C)c1Br [XIIIa.02, 4-bromo-5-[(tert-butoxycarbonyl)amino]-3-methylthiophene-2-carboxylic acid] | 2.86

Same assay, conditions: reversed phase HPLC columns, method [b]: LC-UV, neutral range, 0.001 molar ammonium acetate solution in water and acetonitrile as eluent

Row | SMILES | chromatographic logP
50 | CCOC(=O)C1(NC(=O)c2sc(NC(=O)OC(C)(C)C)c(Br)c2C)CC1 [XIa.01, ethyl 1-[({4-bromo-5-[(tert-butoxycarbonyl)amino]-3-methyl-2-thienyl}carbonyl)amino]cyclopropanecarboxylate] | 3.44

Same assay, conditions: reversed phase HPLC columns, value given in preparation example; method variant not stated

Row | chromatographic logP | SMILES
51 | 3.99 | COC(=O)c1sc(Cl)c(Cl)c1Br [VIIIa.02, methyl 3-bromo-4,5-dichlorothiophene-2-carboxylate]
52 | 2.51 | O=C(O)c1sc(Cl)c(Cl)c1Br [VIIIa.03, 3-bromo-4,5-dichlorothiophene-2-carboxylic acid]
53 | 3.33 | CCOC(=O)CNC(=O)c1sc(Cl)c(Cl)c1Br [VIa.01, ethyl N-[(3-bromo-4,5-dichloro-2-thienyl)carbonyl]glycinate]
54 | 1.92 | CCOC(=O)C1(NC(=O)c2sc(N)c(Br)c2C)CC1 [Xa.01, ethyl 1-{[(5-amino-4-bromo-3-methyl-2-thienyl)carbonyl]amino}cyclopropanecarboxylate]
55 | 3.11 | COC(=O)c1sc(Cl)c(Cl)c1N [methyl 3-amino-4,5-dichlorothiophene-2-carboxylate]

Row | SMILES | chromatographic logP
56 | CCOC(=O)C1(NC(=O)c2sc(NC(=O)OC(C)(C)C)c(Br)c2C)CC1 [XIa.01, ethyl 1-[({4-bromo-5-[(tert-butoxycarbonyl)amino]-3-methyl-2-thienyl}carbonyl)amino]cyclopropanecarboxylate] | 3.28

System: Xanthomonas campestris pv. campestris
Assay: Xanthomonas campestris pv. campestris in vitro cell test (bacteria growth in liquid culture)
Type: cell-based
Conditions: 20 ppm of tested compound; 24 h of incubation
Procedure: Example A: Xanthomonas Campestris pv. Campestris In Vitro Cell Test
Culture medium: LB broth medium (Luria Broth Miller) Sigma
Inoculum: bacteria suspension
Compounds to be tested were solubilized in DMSO and the solution used to prepare the required range of concentrations. The final concentration of DMSO used in the assay was ≤1%.
Inoculum was prepared from a pre-culture of bacteria grown in liquid medium and diluted to the desired optical density (OD).
Compounds were evaluated for their ability to inhibit bacteria growth in liquid culture assay. The compounds were added in the desired concentrations to culture medium containing the bacteria suspension. After 24 h of incubation, the efficacy of compounds was determined by spectrometric measurement of bacteria growth. Inhibition was determined by comparing the absorbance values in wells containing the compounds with the absorbance in control wells without compounds.

Row | SMILES | direct activity (inhibition of bacteria growth)
57 | Cc1c(C(=O)NC2(C(=O)O)CC2)sc(Br)c1Br [I.06] | no direct activity
58 | COC(=O)CNC(=O)c1sc(Br)c(Br)c1C [I.09] | no direct activity
59 | CC/C=C\CCOC(=O)C(NC(=O)c1sc(Br)c(Br)c1C)C(C)C (stereo not drawn) [I.12] | no direct activity
60 | CC[C@H](C)[C@H](NC(=O)c1sc(Br)c(Br)c1C)C(=O)OC [I.22] | no direct activity
61 | CCOC(=O)[C@@H](NC(=O)c1sc(Cl)c(Cl)c1C)C(C)C [I.25] | no direct activity
62 | CC[C@H](C)[C@H](NC(=O)c1sc(Cl)c(Cl)c1C)C(=O)OC [I.32] | no direct activity
63 | CCOC(=O)C(NC(=O)c1sc(Cl)c(Cl)c1C)C(C)C (stereo not drawn) [I.40] | no direct activity
64 | CCOC(=O)C(NC(=O)c1sc(Cl)c(Cl)c1C)C(C)C (stereo not drawn) [I.44] | no direct activity
65 | COC(=O)C1(NC(=O)c2sc(Cl)c(Cl)c2C)CC1 [I.50] | no direct activity
66 | Cc1c(C(=O)NC(C(=O)OCC2CC2)C(C)C)sc(Br)c1Br (stereo not drawn) [I.52] | no direct activity
